Our source for the IC50 and Ki values is ChEMBL document CHEMBL1909046, “DrugMatrix in vitro pharmacology data”.

Assay [1] concerns the target T1, Type-2 angiotensin II receptor (Homo sapiens, UniProt P50052). Also: in other assays of this panel Not Active means under 50% inhibition at 10 µM.
T1 sequence (P50052 whole entry): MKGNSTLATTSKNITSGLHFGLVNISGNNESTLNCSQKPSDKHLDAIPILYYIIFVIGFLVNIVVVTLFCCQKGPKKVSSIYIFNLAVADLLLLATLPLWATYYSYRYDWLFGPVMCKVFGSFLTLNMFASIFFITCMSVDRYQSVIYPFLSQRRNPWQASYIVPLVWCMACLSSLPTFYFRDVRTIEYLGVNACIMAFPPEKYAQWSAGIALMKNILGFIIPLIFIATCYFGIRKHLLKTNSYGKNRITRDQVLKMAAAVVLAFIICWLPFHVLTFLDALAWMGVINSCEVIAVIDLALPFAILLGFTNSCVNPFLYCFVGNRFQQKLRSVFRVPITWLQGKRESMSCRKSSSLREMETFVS
It is filed as cell-based. As to conditions: cho-k1.

Assay [2] deals with Sodium-dependent dopamine transporter (Homo sapiens, UniProt Q01959). The assay can be described thus: DRUGMATRIX: Dopamine Transporter radioligand binding (ligand: [125I] RTI-55). Type of assay: cell membranes, CHO-K1, Membrane. Particulars: cho-k1; Not Active = under 50% inhibition at 10 µM.
Sodium-dependent dopamine transporter, sequence (Q01959 whole entry): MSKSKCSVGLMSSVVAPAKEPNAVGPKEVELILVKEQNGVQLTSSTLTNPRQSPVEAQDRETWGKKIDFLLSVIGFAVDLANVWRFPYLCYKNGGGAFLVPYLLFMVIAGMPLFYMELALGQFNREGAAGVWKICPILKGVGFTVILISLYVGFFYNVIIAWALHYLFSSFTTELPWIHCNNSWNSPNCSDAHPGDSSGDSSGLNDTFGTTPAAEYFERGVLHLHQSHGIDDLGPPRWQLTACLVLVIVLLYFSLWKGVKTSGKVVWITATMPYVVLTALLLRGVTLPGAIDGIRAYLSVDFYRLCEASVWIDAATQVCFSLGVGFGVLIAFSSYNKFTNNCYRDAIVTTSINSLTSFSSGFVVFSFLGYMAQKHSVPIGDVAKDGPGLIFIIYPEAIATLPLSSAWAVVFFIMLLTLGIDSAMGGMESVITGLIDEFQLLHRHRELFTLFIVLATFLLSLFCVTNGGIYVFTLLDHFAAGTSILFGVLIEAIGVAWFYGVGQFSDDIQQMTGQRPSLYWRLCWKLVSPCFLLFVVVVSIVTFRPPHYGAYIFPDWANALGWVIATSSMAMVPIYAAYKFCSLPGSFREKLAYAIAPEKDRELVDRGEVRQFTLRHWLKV
In assay [3] the target is T2, Cysteinyl leukotriene receptor 1 (Homo sapiens, UniProt Q9Y271). Also: in other assays of this panel Not Active means under 50% inhibition at 10 µM.
T2 sequence (Q9Y271 whole entry): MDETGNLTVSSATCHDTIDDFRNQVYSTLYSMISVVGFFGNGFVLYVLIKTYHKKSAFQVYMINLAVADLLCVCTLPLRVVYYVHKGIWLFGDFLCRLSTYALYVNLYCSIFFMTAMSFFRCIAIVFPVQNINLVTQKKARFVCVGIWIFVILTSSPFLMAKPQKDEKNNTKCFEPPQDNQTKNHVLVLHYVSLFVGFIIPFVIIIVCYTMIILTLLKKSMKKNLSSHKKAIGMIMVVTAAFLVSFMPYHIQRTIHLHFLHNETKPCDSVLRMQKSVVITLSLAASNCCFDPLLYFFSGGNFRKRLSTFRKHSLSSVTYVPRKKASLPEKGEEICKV
It is filed as cell membranes, Membrane. Particulars: cho-k1.

Assay [4] is described as follows: DRUGMATRIX: Phosphodiesterase PDE4 enzyme inhibition (substrate: [3H]cAMP + cAMP). Particulars: u-937, Not Active = under 50% inhibition at 10 µM.
For assay [5], the target named is T3, Angiotensin-converting enzyme (Oryctolagus cuniculus, UniProt P12822).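 Also: enzymatic inhibition of angiotensin-converting enzyme measured with FAPGG as the substrate; in other assays of this panel Not Active means under 50% inhibition at 10 µM.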
T3 sequence (P12822 whole entry): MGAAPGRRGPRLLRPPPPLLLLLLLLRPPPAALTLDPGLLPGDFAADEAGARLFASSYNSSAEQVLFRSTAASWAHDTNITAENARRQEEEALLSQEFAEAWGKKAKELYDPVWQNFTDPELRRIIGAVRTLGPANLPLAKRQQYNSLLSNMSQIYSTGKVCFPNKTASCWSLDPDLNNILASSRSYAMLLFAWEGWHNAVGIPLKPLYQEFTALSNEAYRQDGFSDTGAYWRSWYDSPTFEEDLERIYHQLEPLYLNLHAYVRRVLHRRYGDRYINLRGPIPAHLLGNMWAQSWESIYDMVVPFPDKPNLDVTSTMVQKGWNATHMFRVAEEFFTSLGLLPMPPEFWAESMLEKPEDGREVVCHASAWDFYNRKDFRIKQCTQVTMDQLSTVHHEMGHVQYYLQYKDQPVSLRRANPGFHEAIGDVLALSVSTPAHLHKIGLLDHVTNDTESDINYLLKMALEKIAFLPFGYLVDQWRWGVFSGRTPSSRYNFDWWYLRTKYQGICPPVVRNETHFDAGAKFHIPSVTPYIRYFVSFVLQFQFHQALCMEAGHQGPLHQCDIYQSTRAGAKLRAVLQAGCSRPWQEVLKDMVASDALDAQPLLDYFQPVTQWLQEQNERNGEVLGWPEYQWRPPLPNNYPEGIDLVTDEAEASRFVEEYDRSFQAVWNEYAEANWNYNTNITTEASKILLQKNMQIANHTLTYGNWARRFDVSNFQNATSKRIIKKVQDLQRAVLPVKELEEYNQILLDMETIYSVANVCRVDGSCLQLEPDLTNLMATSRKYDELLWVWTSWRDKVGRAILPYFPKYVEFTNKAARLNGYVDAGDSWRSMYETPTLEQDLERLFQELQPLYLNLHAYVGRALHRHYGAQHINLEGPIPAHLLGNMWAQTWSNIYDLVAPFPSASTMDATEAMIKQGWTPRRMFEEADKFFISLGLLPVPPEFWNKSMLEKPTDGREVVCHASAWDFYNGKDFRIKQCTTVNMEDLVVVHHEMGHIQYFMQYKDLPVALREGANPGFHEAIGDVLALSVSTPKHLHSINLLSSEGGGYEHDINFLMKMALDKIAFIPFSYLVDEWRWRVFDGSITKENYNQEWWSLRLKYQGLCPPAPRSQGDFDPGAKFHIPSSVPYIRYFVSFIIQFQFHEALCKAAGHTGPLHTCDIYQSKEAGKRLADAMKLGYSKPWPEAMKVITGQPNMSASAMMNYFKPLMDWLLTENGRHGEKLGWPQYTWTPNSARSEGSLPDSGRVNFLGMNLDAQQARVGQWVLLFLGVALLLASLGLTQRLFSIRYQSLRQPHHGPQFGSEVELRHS
Type of assay: tissue-based, Lung.

The next assay concerns the target T4, Glucocorticoid receptor (Homo sapiens, UniProt P04150). Also: in other assays of this panel Not Active means under 50% inhibition at 10 µM.
T4 sequence (P04150 whole entry): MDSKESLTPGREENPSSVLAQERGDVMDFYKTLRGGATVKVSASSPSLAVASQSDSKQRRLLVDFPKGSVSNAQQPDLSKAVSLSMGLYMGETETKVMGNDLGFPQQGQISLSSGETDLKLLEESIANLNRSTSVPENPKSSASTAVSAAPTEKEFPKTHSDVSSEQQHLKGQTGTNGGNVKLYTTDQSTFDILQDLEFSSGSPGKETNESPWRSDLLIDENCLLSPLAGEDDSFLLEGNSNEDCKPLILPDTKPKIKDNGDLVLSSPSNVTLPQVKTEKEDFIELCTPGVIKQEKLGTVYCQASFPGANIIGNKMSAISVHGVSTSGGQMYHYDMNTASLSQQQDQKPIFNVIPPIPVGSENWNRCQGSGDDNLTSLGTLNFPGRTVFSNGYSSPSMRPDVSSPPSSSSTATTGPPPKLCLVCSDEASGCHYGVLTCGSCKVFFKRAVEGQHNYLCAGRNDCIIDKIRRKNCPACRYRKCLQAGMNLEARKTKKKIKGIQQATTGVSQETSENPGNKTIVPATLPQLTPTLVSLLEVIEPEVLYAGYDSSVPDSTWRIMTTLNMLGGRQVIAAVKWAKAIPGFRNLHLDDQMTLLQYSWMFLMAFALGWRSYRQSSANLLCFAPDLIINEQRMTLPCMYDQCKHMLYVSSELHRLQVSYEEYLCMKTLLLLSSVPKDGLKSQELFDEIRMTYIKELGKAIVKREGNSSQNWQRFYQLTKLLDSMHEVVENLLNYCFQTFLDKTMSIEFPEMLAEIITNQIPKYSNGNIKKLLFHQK
As to conditions: hela s3.

By IC50 is commonly meant the midpoint of a concentration-inhibition curve. For `O=c1cc(N2CCOCC2)oc2c(-c3ccccc3)cccc12` [LY-294002], the IC50 result in assay [1] is “Not Active”; in assay [2] it was “Not Active”; in assay [3] it was “Not Active”; in assay [4] (read-out: IC50), 10.4 µM; in assay [5], “Not Active”; on Glucocorticoid receptor, “Not Active”.
For the compound `COc1cc(N)c(Cl)cc1C(=O)NC1CCN(CCCOc2ccc(F)cc2)CC1OC` (centres undefined) [CISAPRIDE], the IC50 entry (in assay [1]; in assay [2]; in assay [3]; in assay [4]; in assay [5]; at Glucocorticoid receptor) was “Not Active” in each case. For the same compound, in assay [4], the Ki result was “Not Active”.
Regarding `N=C(N)NC(=O)Cc1c(Cl)cccc1Cl` [GUANFACINE], the IC50 entry (in assay [1]; in assay [2]; in assay [3]; in assay [4]; in assay [5]; at Glucocorticoid receptor) was “Not Active” each time. For the same compound, the Ki result in assay [4] is recorded as “Not Active”.
With `CC(C)(C)NC(=O)[C@H]1CC[C@H]2[C@@H]3CC[C@H]4NC(=O)C=C[C@]4(C)[C@H]3CC[C@]12C` [FINASTERIDE], the IC50 entry (in assay [1]; in assay [2]; in assay [3]; in assay [4]; in assay [5]; on Glucocorticoid receptor) was “Not Active” in each case. Moreover, the Ki result in assay [4] was “Not Active”.
For `CC(C)NNC(=O)c1ccncc1` [IPRONIAZID], the IC50 result (in assay [1]; in assay [2]; in assay [3]; in assay [4]; in assay [5]; on Glucocorticoid receptor) was “Not Active” throughout. For the same compound, in assay [4], the Ki result is listed as “Not Active”.
Consider GRAMICIDIN, for which the half-maximal inhibitory concentration (IC50) entry (in assay [1]; in assay [2]; in assay [3]; in assay [4]; in assay [5]; at Glucocorticoid receptor) was “Not Active” each time. Besides, the Ki result (in assay [1]; in assay [2]; in assay [3]; in assay [4]; in assay [5]; at Glucocorticoid receptor) was “Not Active” each time.
Turning to `O=C(N/N=C/c1ccc([N+](=O)[O-])o1)c1cc([N+](=O)[O-])cc([N+](=O)[O-])c1O` [NIFURSOL], the concentration for half-maximal inhibition (IC50) entry (in assay [1]; in assay [2]; in assay [3]; in assay [4]; in assay [5]; against Glucocorticoid receptor) was “Not Active” in each case. Moreover, in assay [4], the Ki result is “Not Active”.
As for `CC(C)NCC(O)COc1cccc2[nH]ccc12` (centres undefined) [PINDOLOL], the IC50 entry (in assay [1]; in assay [2]; in assay [3]; in assay [4]; in assay [5]; against Glucocorticoid receptor) was “Not Active” each time. For the same compound, the Ki entry in assay [4] is recorded as “Not Active”.
Take `Oc1cccc(O)c1O` [PYROGALLOL]: the IC50 result (in assay [1]; in assay [2]; in assay [3]; in assay [4]; in assay [5]; at Glucocorticoid receptor) was “Not Active” throughout. Moreover, the Ki result in assay [4] is “Not Active”.
As for `COc1cc2nc(N3CCN(C(=O)c4ccco4)CC3)nc(N)c2cc1OC` [PRAZOSIN], the IC50 entry (in assay [1]; in assay [2]; in assay [3]; in assay [4]; in assay [5]; on Glucocorticoid receptor) was “Not Active” in each case. In addition, in assay [4], the Ki result is “Not Active”.
Take `NNc1nncc2ccccc12` [HYDRALAZINE]: the 50% inhibitory concentration (IC50) result (in assay [1]; in assay [2]; in assay [3]; in assay [4]; in assay [5]; on Glucocorticoid receptor) was “Not Active” in each case. The Ki result in assay [4] was “Not Active”.
On to `NCCCC(O)(P(=O)(O)O)P(=O)(O)O` [ALENDRONIC ACID], for which the IC50 entry (in assay [1]; in assay [2]; in assay [3]; in assay [4]; in assay [5]; on Glucocorticoid receptor) was “Not Active” throughout. The Ki entry in assay [4] is “Not Active”.
Turning to `O=C1O[C@H]([C@@H](O)CO)C(O)=C1O` [ASCORBIC ACID], the IC50 result (in assay [1]; in assay [2]; in assay [3]; in assay [4]; in assay [5]; against Glucocorticoid receptor) was “Not Active” in each case. Moreover, the Ki result in assay [4] is reported as “Not Active”.
For `C[n+]1ccccc1/C=N/O.[Cl-]` [PRALIDOXIME CHLORIDE], the IC50 result (in assay [1]; in assay [2]; in assay [3]; in assay [4]; in assay [5]; on Glucocorticoid receptor) was “Not Active” in each case. For the same compound, in assay [4], the Ki entry is “Not Active”.
`COc1ccc2c3c1O[C@H]1C[C@@H](O)C=C[C@@]31CCN(C)C2` [GALANTAMINE]: the half-inhibitory concentration (IC50) entry (in assay [1]; in assay [2]; in assay [3]; in assay [4]; in assay [5]; against Glucocorticoid receptor) was “Not Active” each time. Moreover, the Ki result in assay [4] is on record as “Not Active”.
